The results in this text go back to publication PMC6361752, “Construction of a Quantitative Structure Activity Relationship (QSAR) Model to Predict the Absorption of Cephalosporins in Zebrafish for Toxicity Study” (Frontiers in Pharmacology, 2019).

SMILES strings stand for the structures.

For the series, the system named is Zebrafish wild-type (WT) embryos. The series is described as follows: Absorption (internal concentration) of cephalosporins in zebrafish embryos by LC-MS/MS. The note with it: 6 hpf-3 dpf; for k-value (slope of the dose-internal concentration linear regression): zebrafish embryos, 0.28, 1.0 and 2.0 mM, higher k = more readily absorbed. How it is done: Zebrafish (Danio rerio) were fed at the Institute of Medicinal Biotechnology, Beijing Union Medical College, Beijing, China. […] Zebrafish wild-type (WT) embryos (n = 30) at 6 h post-fertilization (6 hpf) were used. After immersing the embryos in 2 mL of each drug solution (Drugs were dissolved in breeding water), they were incubated in a 20 mm dish for 3 days. […] The zebrafish bodies were collected at 3 days post-fertilization (dpf). The blank controls were zebrafish WT embryos (n = 30) that were incubated in breeding water.
Using a cell strainer (100 μm, BD-Falcon, United States), zebrafish bodies (30 in each dish) were washed five times with deionized water. Zebrafish bodies were triturated in 100 μL of deionized water, and then they were homogenized for 1 min. Zebrafish homogenate (50 μL) and internal standard (IS) working solution (10 μL) were individually transferred into a 1.5-mL microcentrifuge tube. Then, 200 μL of 1% formic acid-methanol solution was added into the tube. The samples were vortexed for 20 s. To precipitate proteins, the samples were centrifuged at 10,800 g for 10 min. The resultant supernatant (10 μL) was injected into LC-MS/MS for analysis.
The LC-MS/MS technique was performed by combining a 20A LC (Shimadzu, Kyoto, Japan) and a 6500 Q-Trap mass spectrometer (AB Sciex, Foster City, CA, United States), which was equipped with an electrospray ionization (ESI) source. Moreover, LC separations were performed on a reversed-phase ACE C18 column (5 cm × 2.1 mm ID, 3 μm particle size, Advanced Chromatography Technologies, Aberdeen, United Kingdom), which was attached to a corresponding guard column (1 cm × 2.1 mm ID, 3 μm particle size; Advanced Chromatography Technologies, United Kingdom). The mobile phase comprised of 5 mM ammonium formate (pH = 3.5) (solvent A) and acetonitrile (solvent B). The composition of the gradient was as follows: 2% solvent B for the first 0.1 min; 3.5 min, 90% solvent B; 6.0 min, 90% solvent B; 6.1 min, 2% solvent B; and 10 min, 2% solvent B. Mass spectrometric analysis was performed in a positive mode. Ion-spray voltage was set at 5000 V, and source temperature was kept fixed at 500°C. Curtain gas, gas 1, and gas 2 were 25, 40, and 40 psi, respectively. Multiple reaction monitoring (MRM) scan was used for the quantification of 19 analytes. In this scan, we determined the most intense product ion (PI) of each analyte. The entrance potential (EP) of all analytes was 10 eV. For each ion transition, dwell time and pause time were set to 30 and 5 ms, respectively. The Analyst 1.6.2 software (AB Sciex, Foster City, CA, United States) was used to perform data acquisition and analysis.
Dose-internal concentration curves were constructed by linear regression analysis. The slope of each linear regression was defined as k-value for each drug. […] The entire data set was split into the training set and test set by a random index, which was operated by DS4.0 software. The training set percentage was set at 80.
Using the aforementioned method, we analyzed the internal concentrations of cephalosporins in zebrafish. […] The calibration samples and administration samples were processed in a timely manner. The internal concentration of each cephalosporin in the zebrafish was calculated by using the corresponding calibration curve (Table 2). […] Dose-internal concentration curves were constructed by linear regression analysis (Figure 1). For each drug, the slope of each linear regression was defined as k-value. This parameter was used to evaluate the absorption capacity of each drug.

Setting [1] is: zebrafish embryos exposed to 0.28 mM drug solution.
Where [2] appears, read: zebrafish embryos exposed to 1 mM drug solution.
Where [3] appears, read: zebrafish embryos exposed to 2 mM drug solution.

`CO/N=C(\C(=O)N[C@@H]1C(=O)N2C(C(=O)O)=C(COC(N)=O)CS[C@H]12)c1ccco1` [Cefuroxime]: the “k-value (slope of the dose-internal concentration linear regression)” value was 2.3643. In addition, the Internal concentration under setting [1] stood at 0.68 mM × 10^-5. This molecule also returned an Internal concentration under setting [2] of 1.55 mM × 10^-5. Moreover, the Internal concentration under setting [3] was found to be 4.66 mM × 10^-5. Moreover, the “k-value (slope of the dose-internal concentration linear regression)” value (listed as cefuroxime) was under 5.
With `CO[C@@]1(NC(=O)CSC(F)F)C(=O)N2C(C(=O)O)=C(CSc3nnnn3CCO)CO[C@@H]21` [Flomoxef], the “k-value (slope of the dose-internal concentration linear regression)” value is 5.9111. Under setting [1], this molecule registered an Internal concentration of 1.07 mM × 10^-5. In addition, the Internal concentration under setting [2] is on record as 8.30 mM × 10^-5. Moreover, under setting [3], the Internal concentration is reported as 11.54 mM × 10^-5. For the same molecule, the “k-value (slope of the dose-internal concentration linear regression)” value (listed as flomoxef) is listed as over 5.
